{"source": "patent US11246907B2", "about": "“Immunosuppressive agents and their use in therapy” (Norwegian University of Science and Technology, priority 2013, dated 2022)", "key": {"[1]": {"test_system": "ERK1 Thr202/Tyr204 and ERK2 Thr185/Tyr187 phosphorylation", "test": "Western blot of ERK1/2 phosphorylation in JJN-3 cells", "type": "cell-based", "details": "6 μM ATX-101, 4, 8, 24 h"}, "[2]": {"test_system": "Akt Ser473 phosphorylation", "test": "Western blot of Akt Ser473 phosphorylation in peripheral blood monocytes", "type": "cell-based, human", "details": "4 μM ATX-101, 4 h", "method": "(§1) Data is from one representative donor out of three; and (B-E) show multiplex analysis of cytokine levels produced by peripheral blood monocytes stimulated with 10 ng/ml LPS (B and D, same donor) and 40 μg/ml polyIC (C and E, same donor) after 4 h. (B and C) Stimulated-monocytes were treated with 4 μM ATX-101, 10 μM SB203580 (p38 MAPK inhibitor), and combination of ATX-101 and SB203580. (D and E) Stimulated-monocytes were treated with 4 μM ATX-101, 5 and 10 μM LY294002 (PI3K class I inhibitor), and combination of ATX-101 and LY294002. Measured cytokine levels were normalized to cytokine levels from monocytes stimulated with TLR ligand alone. A two fold or higher increase in cytokine level after TLR stimulation was defined as cytokine induction. # Value is too low to be visible in the column diagram; ? cytokine measurement was out of range. Data is from representative experiments out of two.\n(§2) Mononucleated cells were seeded and stimulated as described above. JJN-3 cells were treated with ATX-101 (6 μM) for 4 h. HaCaT cells were treated with ATX-101 (12 μM), polylC (2 μg/ml), and LPS (100 ng/ml) for 4 h. […] The proteins were visualized with the Odyssey infrared imaging system (LI-COR) and quantified using Odyssey Image Studio V2. […]"}, "[3]": {"test_system": "Akt Ser473 phosphorylation", "test": "Western blot of Akt Ser473 phosphorylation in HaCaT cells", "type": "cell-based, human", "details": "12 μM, 4 h; unstimulated and 2 μg/ml polyIC", "method": "Protein levels were corrected for loading differences (β-tubulin) and normalized to untreated control cells. […] Bar, 5 μm.\nThe multiple myeloma cell lines JJN-3 (gift from J. Ball, University of Birmingham, United Kingdom) were grown in RPMI 1640 (Sigma-Aldrich, Schnelldorf, Germany) supplemented with 10% FCS, 2 mM glutamine (Sigma-Aldrich), 2.5 μg/ml amphotericin B (Sigma-Aldrich) and 100 μg/ml gentamicin (Invitrogen, Carlsbad, Calif., USA). HaCaT cells (spontaneously transformed keratinocytes) were cultured in DMEM (Sigma-Aldrich) containing FCS, glutamine, amphotericin B, and gentamicin. All cells were cultured at 37° C. in a humidified atmosphere of 5% CO2.\nas §2"}, "[4]": {"test_system": "peripheral blood monocytes", "test": "Multiplex (27-plex) cytokine secretion of TLR-ligand stimulated peripheral blood monocytes", "type": "cell-based, human", "details": "4 h", "method": "Measured cytokine levels were normalized to cytokine levels from monocytes stimulated with TLR ligand alone. A two fold or higher increase in cytokine level after TLR stimulation was defined as cytokine induction. […] Isolated monocytes were stimulated with 10 ng/ml LPS and 40 μg/ml polyIC alone and in combination with 4 μM ATX-101 for 4 h. […] DRAQS was used for nuclear staining. Bar, 5 μm.\nas §1\n(§3) Measured cytokine levels were normalized to cytokine levels from monocytes stimulated with TLR ligand alone. A two fold or higher increase in cytokine level after TLR stimulation was defined as cytokine induction. ? Cytokine measurement was out of range. Data is from one experiment out of two.\nMeasured cytokine levels were normalized to cytokine levels from monocytes stimulated with TLR ligand alone. Data is from one donor. We obtained similar results for IL-6 secretion in two other donors.\nas §3, with “# Value is too low to be visible in the column diagram; 0” for “?”\nPeripheral blood mononuclear cells were isolated from A+ buffy coats (Blood Bank, St. Olav's University Hospital, Trondheim, Norway) by density gradient centrifugation (Lymphoprep; Axis-Shield PoC, Oslo, Norway). Mononucleated cells were seeded at 4 million cells/ml in serum-free RPMI 1640 supplemented with glutamine and gentamicin. After 60-90 min the adherent cell population was washed before cultured in medium with 10% heat-inactivated human serum (Blood Bank, St. Olav's University Hospital). ATX-101 (4 μM [Innovagen, Lund, Sweden]), ATX-A (4 μM, [Innovagen]) (ATX-A is represented in SEQ ID NO: 1206 and contains the motif RALVK (SEQ ID NO: 1207), which is not capable of interacting with PCNA), p38 inhibitor (SB203580, 10 μM, [Sigma-Aldrich]), PI3K inhibitor (LY294002, 5 and 10 μM, [Sigma-Aldrich]), and Akt inhibitor (Akt inhibitor XVIII SC66, 1 μg/ml, [Sigma-Aldrich]) were added in serum-free medium and incubated for 5 min before LPS (10 ng/ml, [Sigma-Aldrich]), polylC (40 μg/ml, [GE Healthcare, Little Chalfont, UK]), PAM3Cys (10 ng/ml, [Invivogen, San Diego, Calif., USA]) or R848 (10 μg/ml, [Invivogen]) were added in serum-containing medium. The cells were incubated for 4 h before the supernatants were harvested and frozen prior to further cytokine analysis by the 27-plex assay (Bio-Plex ProTM Human cytokine 27-plex assay)."}}, "note": "Ends that are not written are not given here."}
{"substance": "Ac-MDRWLVKWKKKRKIRRRRRRRRRRR [ATX-101]", "values": [{"measurement": "ERK1/2 phosphorylation", "setting": "[1]", "result": "transient increase"}, {"measurement": "LPS- and polyIC-induced and basal Akt phosphorylation", "setting": "[2]", "result": "reduced"}, {"measurement": "Akt phosphorylation in HaCaT cells", "setting": "[3]", "result": "reduced Akt phosphorylation in unstimulated and stimulated cells"}, {"measurement": "cytokine secretion, combination of ATX-101 and p38 MAPK inhibitor", "setting": "[4]; LPS or polyIC, 4 μM ATX-101 + 10 μM SB203580", "result": "increased reduction of most cytokines"}, {"measurement": "cytokine secretion, combination of ATX-101 and PI3K inhibitor LY294002", "setting": "[4]; LPS or polyIC, 4 μM ATX-101 + 5 and 10 μM LY294002", "result": "reduction in the secretion of some cytokines"}, {"measurement": "cytokine secretion from stimulated monocytes, single agent", "setting": "[4]; LPS or polyIC, ATX-101 4 μM, SB203580 10 μM, LY294002 5 and 10 μM, SC66 1 μg/ml", "result": "reduced cytokine secretion"}, {"measurement": "basal level production of CXCL10", "setting": "[4]; isolated monocytes, 4 μM", "result": "decreased"}, {"measurement": "basal level of IL-12", "setting": "[4]; monocytes, 4 μM", "result": "reduced the basal level of IL-12"}, {"measurement": "secretion of LPS-induced cytokines", "setting": "[4]; monocytes, 4 μM, 10 ng/ml LPS", "result": "efficiently reduced"}, {"measurement": "secretion of CXCL10, CCL2, CCL3 and CCL4 after TLR3 stimulation with polyIC", "setting": "[4]; monocytes, 4 μM, 40 μg/ml polyIC", "result": "reduced the secretion of CXCL10, CCL2, CCL3, and CCL4"}]}
